1 molecule from patent US10646492B2, “Heterocyclylamines as PI3K inhibitors” (Incyte Corporation, priority 2011, dated 2020) can be followed below.

In the assay the target is PI3Kδ (p110δ/p85α) (Homo sapiens (Human), UniProt O00329). Put plainly: PI3Kδ scintillation proximity assay (Example A3). The note with it: 20 μM ATP, 4 nM PI3Kδ, read-out: PI3Kδ SPA IC50. In kind it is biochemical. As to the method:
PI3Kδ (p110δ/p85α) was purchased from Millipore (Bedford, Mass.). ATP, MgCl2, DTT, EDTA, MOPS and CHAPS were purchased from SigmaAldrich (St. Louis, Mo.). Wheat Germ Agglutinin (WGA) YSi SPA Scintillation Beads was purchased from GE healthcare life sciences (Piscataway, N.J.). The kinase reaction was conducted in polystyrene 384-well matrix white plate from Thermo Fisher Scientific in a final volume of 25 μL. Inhibitors were first diluted serially in DMSO and added to the plate wells before the addition of other reaction components. The final concentration of DMSO in the assay was 0.5%. The PI3K assays were carried out at room temperature in 20 mM MOPS, pH 6.7, 10 mM MgCl2, 5 mM DTT and CHAPS 0.03%. Reactions were initiated by the addition of ATP, the final reaction mixture consisted of 20 μM PIP2, 20 μM ATP, 0.2 μCi [γ-^33P]ATP, 4 nM PI3Kδ. […] 25 mM EDTA, 400 μM ATP. The final concentration of SPA beads was 1.0 mg/mL. […] IC50 determination was performed by fitting the curve of percent control activity versus the log of the inhibitor concentration using the GraphPad Prism 3.0 software.
In general terms: In a scintillation proximity assay essentially only radioactivity close to the scintillant gives light.

pIC50: −log10 of the molar value.

PI3Kδ (p110δ/p85α), sequence (O00329 whole entry): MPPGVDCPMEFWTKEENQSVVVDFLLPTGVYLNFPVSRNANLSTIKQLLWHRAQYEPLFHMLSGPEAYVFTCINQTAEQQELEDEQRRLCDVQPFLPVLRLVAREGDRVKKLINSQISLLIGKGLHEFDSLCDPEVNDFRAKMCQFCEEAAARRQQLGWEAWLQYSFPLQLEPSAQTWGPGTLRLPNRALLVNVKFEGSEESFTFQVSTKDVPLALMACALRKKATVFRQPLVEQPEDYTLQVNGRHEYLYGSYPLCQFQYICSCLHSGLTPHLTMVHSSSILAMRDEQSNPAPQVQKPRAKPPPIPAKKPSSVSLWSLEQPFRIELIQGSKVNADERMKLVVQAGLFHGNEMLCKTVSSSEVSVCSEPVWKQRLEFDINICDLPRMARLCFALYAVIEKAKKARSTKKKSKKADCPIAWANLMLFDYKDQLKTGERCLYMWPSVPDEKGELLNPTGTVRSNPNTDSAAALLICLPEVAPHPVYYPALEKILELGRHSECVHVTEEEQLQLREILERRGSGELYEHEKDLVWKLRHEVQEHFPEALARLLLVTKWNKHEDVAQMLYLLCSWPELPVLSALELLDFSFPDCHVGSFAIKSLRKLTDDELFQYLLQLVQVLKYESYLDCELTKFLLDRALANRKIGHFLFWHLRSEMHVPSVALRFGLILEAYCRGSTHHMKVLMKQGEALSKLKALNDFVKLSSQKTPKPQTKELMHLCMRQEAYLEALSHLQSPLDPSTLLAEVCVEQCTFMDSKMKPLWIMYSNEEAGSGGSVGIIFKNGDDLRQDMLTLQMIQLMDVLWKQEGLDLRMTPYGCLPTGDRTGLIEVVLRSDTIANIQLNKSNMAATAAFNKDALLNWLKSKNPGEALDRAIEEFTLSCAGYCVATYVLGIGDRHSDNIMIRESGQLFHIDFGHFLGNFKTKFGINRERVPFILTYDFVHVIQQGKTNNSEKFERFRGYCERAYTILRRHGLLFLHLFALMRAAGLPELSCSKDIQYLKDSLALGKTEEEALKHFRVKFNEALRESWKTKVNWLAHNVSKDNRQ
PI3Kδ (p110δ/p85α), sequence (P27986 whole entry partner): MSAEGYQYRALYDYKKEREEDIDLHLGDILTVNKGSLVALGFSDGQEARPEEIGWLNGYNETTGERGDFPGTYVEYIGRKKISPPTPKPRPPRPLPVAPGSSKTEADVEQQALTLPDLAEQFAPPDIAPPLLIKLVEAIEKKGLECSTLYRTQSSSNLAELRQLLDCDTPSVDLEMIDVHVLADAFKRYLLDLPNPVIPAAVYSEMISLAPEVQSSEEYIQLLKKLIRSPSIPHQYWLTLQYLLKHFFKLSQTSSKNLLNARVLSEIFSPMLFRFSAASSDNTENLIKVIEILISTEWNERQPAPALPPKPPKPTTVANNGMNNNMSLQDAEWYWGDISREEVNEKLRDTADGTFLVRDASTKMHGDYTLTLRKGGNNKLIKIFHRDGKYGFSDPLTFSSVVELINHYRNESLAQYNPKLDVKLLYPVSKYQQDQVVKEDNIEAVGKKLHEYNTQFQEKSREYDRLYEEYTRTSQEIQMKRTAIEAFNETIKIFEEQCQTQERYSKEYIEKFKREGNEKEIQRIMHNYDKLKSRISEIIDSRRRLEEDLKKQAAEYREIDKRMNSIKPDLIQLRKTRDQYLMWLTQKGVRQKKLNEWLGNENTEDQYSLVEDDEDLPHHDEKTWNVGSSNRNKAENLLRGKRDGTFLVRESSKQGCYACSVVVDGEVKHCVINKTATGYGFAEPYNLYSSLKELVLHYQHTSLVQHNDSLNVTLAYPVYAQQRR

In general, pIC50 refers to −log10 of the IC50, conventionally taken in molar units. In the case of `CCOc1c(C(C)n2nc(C)c3c(N)ncnc32)cc(Cl)c(C#N)c1-c1ccc(C(=O)NC)nc1` (stereo not shown) [Example 333, 5-{3-[1-(4-amino-3-methyl-1H-pyrazolo[3,4-d]pyrimidin-1-yl)ethyl]-5-chloro-6-cyano-2-ethoxyphenyl}-N-methylpyridine-2-carboxamide], the negative logarithm of the IC50 (pIC50) is over 8.00.
